Columns and labels:
[1] = tested on: secreted inflammatory factors of microglia; assay: ELISA of secreted factors in culture medium of LPS-activated microglia; type: cell-based, mouse
Description: Major chemokines CXCL1, CXCL2 and CCL3 were suppressed by more than 2-fold. There was a mixed effect on markers of M2-like markers, with TGF-β1 and YM1 increasing and IL-10 decreasing. As these inflammatory factors were secreted, they were quantified by ELISA in culture medium. The greatest effect was with IL-6 which was suppressed at a lower dose of SRI-42127 (1.7-fold at 0.1 μM) and nearly 10-fold at 1.0 μM. IL-1β and TNF-α were suppressed by 5-fold at 1.0 μM.

PIM1 = PIM1 (Homo sapiens, UniProt P11309); assay: SelectScreen kinase profiling, ZLYTE; type: biochemical
Sequence of PIM1 (P11309 whole entry): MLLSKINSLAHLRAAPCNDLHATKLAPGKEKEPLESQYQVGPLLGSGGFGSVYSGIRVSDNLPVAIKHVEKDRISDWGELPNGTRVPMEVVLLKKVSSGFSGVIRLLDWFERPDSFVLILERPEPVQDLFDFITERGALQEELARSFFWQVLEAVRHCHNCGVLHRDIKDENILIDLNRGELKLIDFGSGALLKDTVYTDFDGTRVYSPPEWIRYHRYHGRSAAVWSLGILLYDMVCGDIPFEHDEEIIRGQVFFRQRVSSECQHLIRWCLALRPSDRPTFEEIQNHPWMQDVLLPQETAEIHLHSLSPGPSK
Description: (§1) The kinase inhibitory potentials of compounds as described herein (e.g., SRI-42127 and SRI-41664) were evaluated by ThermoFisher Scientific's SelectScreen™ Kinase Profiling Service. The following kinase inhibitory assays were utilized: ZLYTE (Madison, WI) for NTRK1, PIM1, and cMET kinases; LanthaScreen Binding (Madison, WI) for AAK1 kinase; and Adapta (Madison, WI) for IRAK1 kinase.

TRKA (NTRK1) = TRKA (NTRK1) (Homo sapiens, UniProt P04629); assay: SelectScreen kinase profiling, ZLYTE; type: biochemical
Sequence of TRKA (NTRK1) (P04629 33-796): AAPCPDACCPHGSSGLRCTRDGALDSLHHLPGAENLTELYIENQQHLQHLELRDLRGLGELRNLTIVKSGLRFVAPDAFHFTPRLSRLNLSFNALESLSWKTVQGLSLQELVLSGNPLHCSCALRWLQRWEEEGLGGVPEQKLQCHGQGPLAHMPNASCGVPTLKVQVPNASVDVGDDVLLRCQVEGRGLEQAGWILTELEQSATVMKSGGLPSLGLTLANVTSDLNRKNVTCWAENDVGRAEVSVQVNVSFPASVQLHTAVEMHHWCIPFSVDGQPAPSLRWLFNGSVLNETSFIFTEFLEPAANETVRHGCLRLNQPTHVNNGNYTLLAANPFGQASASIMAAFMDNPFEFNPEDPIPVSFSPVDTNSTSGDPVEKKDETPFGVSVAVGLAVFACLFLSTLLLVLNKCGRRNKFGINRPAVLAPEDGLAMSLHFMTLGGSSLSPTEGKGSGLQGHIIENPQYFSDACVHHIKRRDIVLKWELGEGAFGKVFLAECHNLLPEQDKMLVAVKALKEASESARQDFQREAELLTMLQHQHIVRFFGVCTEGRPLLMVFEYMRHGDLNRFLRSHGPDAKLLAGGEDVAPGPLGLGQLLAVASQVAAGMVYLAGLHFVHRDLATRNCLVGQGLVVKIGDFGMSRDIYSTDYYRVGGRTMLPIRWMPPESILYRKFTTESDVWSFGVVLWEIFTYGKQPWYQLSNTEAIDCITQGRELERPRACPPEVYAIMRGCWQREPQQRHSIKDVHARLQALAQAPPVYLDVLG
Description: as §1

[2] = tested on: JX22p neurospheres, HuR mRNA targets; assay: Illumina global RNA-sequencing of PDGx neurospheres; type: cell-based; details: 3 uM, 12 hours, compared to control
Description: (§2) Illumina global RNA-sequencing data were generated by utilizing PDGx neurospheres, which have been treated with a compound as described herein (e.g., SRI-42127, 3 uM) for 12 hours or with vehicle as the control. RNA was isolated by using TRIzol reagent (Invitrogen; Carlsbad, CA). The RNA samples were processed.
(§3) RNA sequencing was performed on PDGx-derived glioma neurospheres representing the different molecular subtypes (classical, neuronal, and mesenchymal) after treatment with vehicle (control) or SRI-42127 (3 uM) for 12 hours. Analysis of direct HuR mRNA targets and their corresponding cell signaling pathways was performed. Table 9 illustrates the evaluated gene sets, representing direct HuR mRNA targets, and their corresponding cell signaling pathways.
(§4) The analysis of direct HuR mRNA targets and their corresponding cell signaling pathways has been performed by using gene sets, which have been defined as the direct HuR targets following tumor neurosphere treatment with DHTS, an established modulator of HuR/mRNA interaction (Lal et al., Nucleic Acid Research, 2017). […] Data are represented as average+standard deviation (Aver+SD). The significance was evaluated by using Student t-test.
(§5) The analysis was generated based on RNA-Seq data.

[3] = tested on: X14P neurospheres, HuR mRNA targets; assay: as above; type: cell-based; details: 3 uM, 12 hours, compared to control
Description: as §2, §3, §4, §5

[4] = tested on: JX12p neurospheres, HuR mRNA targets; assay: as above; type: cell-based; details: 3 uM, 12 hours, compared to control
Description: as §2, §3, §4, §5

microglia = assay: PrestoBlue cell viability assay in microglia; type: cell-based, mouse; details: tested dose range (up to 1 μM)

CN(c1ccc2ncc(-c3ccc4cn[nH]c4c3)n2n1)C1CCOCC1 [Compound 19]
suppression of secreted IL-6 ([1]; 0.1 μM): 1.7 fold
suppression of secreted IL-1β ([1]; 1.0 μM): 5 fold
suppression of secreted IL-6 ([1]; 1.0 μM): ~10 fold
suppression of secreted TNF-α ([1]; 1.0 μM): 5 fold
IC50 (PIM1): 668 nM
IC50 (TRKA (NTRK1)): 117 nM
gene set average value, Activation of BH3-only proteins Homo sapiens_R-HSA-114452 [2]: 0.42
gene set average value, Cell Cycle Check points_Homo Sapiens_R-HSA-69620 [2]: 0.35
gene set average value, Cell Cycle, Mitotic_Homo Sapiens_R-HSA-69278 [2]: 0.32
gene set average value, Cell Cycle_Homo sapiens_R-HSA-1640170 [2]: 0.36
gene set average value, Cell cycle_Homo Sapiens_hsa04110 [2]: 0.37
gene set average value, Cellular Senescence_Homo sapiens_R-HSA-2559583 [2]: 0.28
gene set average value, Cellular responses to Stress_Homo sapiens_R-HSA-2262752 [2]: 0.27
gene set average value, Deadenylation-dependent mRNA decay_Homo sapiens_R-HSA-429914 [2]: 0.31
gene set average value, Developmental Biology_Homo sapiens_R-HSA-1266738 [2]: 0.32
gene set average value, Epstein-Barr virus Infection_Homo Sapiens_hsa05169 [2]: 0.43
gene set average value, G2/M Check points_Homo sapiens_R-HSA-69481 [2]: 0.39
gene set average value, G2/M DNA damage Checkpoint_Homo sapiens_R-HSA-69473 [2]: 0.39
gene set average value, Gene Expression_Homo Sapiens_R-HSA-2559583 [2]: 0.37
gene set average value, HTLV-1 infection_Homo Sapiens_hsa05186 [2]: 0.47
gene set average value, Intrinsic Pathway for Apoptosis_Homo sapiens_R-HSA-109606 [2]: 0.42
gene set average value, MAPK signaling Pathway_Homo Sapiens_hsa04010 [2]: 0.31
gene set average value, Membrane Trafficking_Homo sapiens_R-HAS-199991 [2]: 0.28
gene set average value, Mitotic G1-G1/S phases_Homo sapiens_R-HSA-453279 [2]: 0.36
gene set average value, P53 signaling pathway_Homo Sapiens_hsa04115 [2]: 0.24
gene set average value, RHO GTPases Activate Formins_Homo sapiens_R-HSA-5663220 [2]: 0.26
gene set average value, RHO GTPases Effectors_Homo sapiens_R-HSA-195258 [2]: 0.30
gene set average value, RNA degradation_Homo Sapiens_hsa03018 [2]: 0.35
gene set average value, Regulation of TP53 Activity through Phosphorylation_Homo sapiens_R-HSA-6804756 [2]: 0.34
gene set average value, Regulation of TP53 Activity_Homo sapiens_R-HSA-109606 [2]: 0.31
gene set average value, Signaling by Rho GTPases_Homo sapiens_R-HSA-194315 [2]: 0.30
gene set average value, TP53 Regulates Metabolic Genes_Homo sapiens_R-HSA-5628897 [2]: 0.30
gene set average value, Transcriptional Regulation by TP53_Homo sapiens_R-HSA-3700989 [2]: 0.31
gene set average value, Translocation of GLUT4 to the plasma membrane_Homo sapiens_R-HSA-1445148 [2]: 0.40
gene set average value, Activation of BH3-only proteins Homo sapiens_R-HSA-114452 [3]: 1.03
gene set average value, Cell Cycle Check points_Homo Sapiens_R-HSA-69620 [3]: 0.77
gene set average value, Cell Cycle, Mitotic_Homo Sapiens_R-HSA-69278 [3]: 0.80
gene set average value, Cell Cycle_Homo sapiens_R-HSA-1640170 [3]: 0.74
gene set average value, Cell cycle_Homo Sapiens_hsa04110 [3]: 0.99
gene set average value, Cellular Senescence_Homo sapiens_R-HSA-2559583 [3]: 0.99
gene set average value, Cellular responses to Stress_Homo sapiens_R-HSA-2262752 [3]: 0.74
gene set average value, Deadenylation-dependent mRNA decay_Homo sapiens_R-HSA-429914 [3]: 1.03
gene set average value, Developmental Biology_Homo sapiens_R-HSA-1266738 [3]: 0.65
gene set average value, Epstein-Barr virus Infection_Homo Sapiens_hsa05169 [3]: 1.0
gene set average value, G2/M Check points_Homo sapiens_R-HSA-69481 [3]: 0.82
gene set average value, G2/M DNA damage Checkpoint_Homo sapiens_R-HSA-69473 [3]: 0.82
gene set average value, Gene Expression_Homo Sapiens_R-HSA-2559583 [3]: 0.95
gene set average value, HTLV-1 infection_Homo Sapiens_hsa05186 [3]: 0.89
gene set average value, Intrinsic Pathway for Apoptosis_Homo sapiens_R-HSA-109606 [3]: 1.03
gene set average value, MAPK signaling Pathway_Homo Sapiens_hsa04010 [3]: 1.0
gene set average value, Membrane Trafficking_Homo sapiens_R-HAS-199991 [3]: 0.86
gene set average value, Mitotic G1-G1/S phases_Homo sapiens_R-HSA-453279 [3]: 1.00
gene set average value, P53 signaling pathway_Homo Sapiens_hsa04115 [3]: 1.9
gene set average value, RHO GTPases Activate Formins_Homo sapiens_R-HSA-5663220 [3]: 0.62
gene set average value, RHO GTPases Effectors_Homo sapiens_R-HSA-195258 [3]: 0.70
gene set average value, RNA degradation_Homo Sapiens_hsa03018 [3]: 1.97
gene set average value, Regulation of TP53 Activity through Phosphorylation_Homo sapiens_R-HSA-6804756 [3]: 0.58
gene set average value, Regulation of TP53 Activity_Homo sapiens_R-HSA-109606 [3]: 0.94
gene set average value, Signaling by Rho GTPases_Homo sapiens_R-HSA-194315 [3]: 0.65
gene set average value, TP53 Regulates Metabolic Genes_Homo sapiens_R-HSA-5628897 [3]: 1.03
gene set average value, Transcriptional Regulation by TP53_Homo sapiens_R-HSA-3700989 [3]: 1.04
gene set average value, Translocation of GLUT4 to the plasma membrane_Homo sapiens_R-HSA-1445148 [3]: 0.92
gene set average value, Activation of BH3-only proteins Homo sapiens_R-HSA-114452 [4]: 0.90
gene set average value, Cell Cycle Check points_Homo Sapiens_R-HSA-69620 [4]: 0.58
gene set average value, Cell Cycle, Mitotic_Homo Sapiens_R-HSA-69278 [4]: 0.58
gene set average value, Cell Cycle_Homo sapiens_R-HSA-1640170 [4]: 0.57
gene set average value, Cell cycle_Homo Sapiens_hsa04110 [4]: 0.64
gene set average value, Cellular Senescence_Homo sapiens_R-HSA-2559583 [4]: 0.74
gene set average value, Cellular responses to Stress_Homo sapiens_R-HSA-2262752 [4]: 0.61
gene set average value, Deadenylation-dependent mRNA decay_Homo sapiens_R-HSA-429914 [4]: 0.71
gene set average value, Developmental Biology_Homo sapiens_R-HSA-1266738 [4]: 0.52
gene set average value, Epstein-Barr virus Infection_Homo Sapiens_hsa05169 [4]: 0.63
gene set average value, G2/M Check points_Homo sapiens_R-HSA-69481 [4]: 0.60
gene set average value, G2/M DNA damage Checkpoint_Homo sapiens_R-HSA-69473 [4]: 0.61
gene set average value, Gene Expression_Homo Sapiens_R-HSA-2559583 [4]: 0.78
gene set average value, HTLV-1 infection_Homo Sapiens_hsa05186 [4]: 0.67
gene set average value, Intrinsic Pathway for Apoptosis_Homo sapiens_R-HSA-109606 [4]: 0.90
gene set average value, MAPK signaling Pathway_Homo Sapiens_hsa04010 [4]: 0.63
gene set average value, Membrane Trafficking_Homo sapiens_R-HAS-199991 [4]: 0.62
gene set average value, Mitotic G1-G1/S phases_Homo sapiens_R-HSA-453279 [4]: 0.58
gene set average value, P53 signaling pathway_Homo Sapiens_hsa04115 [4]: 1.21
gene set average value, RHO GTPases Activate Formins_Homo sapiens_R-HSA-5663220 [4]: 0.48
gene set average value, RHO GTPases Effectors_Homo sapiens_R-HSA-195258 [4]: 0.50
gene set average value, RNA degradation_Homo Sapiens_hsa03018 [4]: 0.78
gene set average value, Regulation of TP53 Activity through Phosphorylation_Homo sapiens_R-HSA-6804756 [4]: 0.63
gene set average value, Regulation of TP53 Activity_Homo sapiens_R-HSA-109606 [4]: 0.89
gene set average value, Signaling by Rho GTPases_Homo sapiens_R-HSA-194315 [4]: 0.49
gene set average value, TP53 Regulates Metabolic Genes_Homo sapiens_R-HSA-5628897 [4]: 0.87
gene set average value, Transcriptional Regulation by TP53_Homo sapiens_R-HSA-3700989 [4]: 0.93
gene set average value, Translocation of GLUT4 to the plasma membrane_Homo sapiens_R-HSA-1445148 [4]: 0.71
toxicity to microglia (microglia): did not cause toxicity

Reference: US12435091B2, “RNA-binding protein multimerization inhibitors and methods of use thereof” (THE UAB RESEARCH FOUNDATION, priority 2020, dated 2025)
